# pIC50: −log10 of the molar value.
# Target: T1, hGR (Homo sapiens, UniProt P04150)
# T1 sequence (P04150 1-777): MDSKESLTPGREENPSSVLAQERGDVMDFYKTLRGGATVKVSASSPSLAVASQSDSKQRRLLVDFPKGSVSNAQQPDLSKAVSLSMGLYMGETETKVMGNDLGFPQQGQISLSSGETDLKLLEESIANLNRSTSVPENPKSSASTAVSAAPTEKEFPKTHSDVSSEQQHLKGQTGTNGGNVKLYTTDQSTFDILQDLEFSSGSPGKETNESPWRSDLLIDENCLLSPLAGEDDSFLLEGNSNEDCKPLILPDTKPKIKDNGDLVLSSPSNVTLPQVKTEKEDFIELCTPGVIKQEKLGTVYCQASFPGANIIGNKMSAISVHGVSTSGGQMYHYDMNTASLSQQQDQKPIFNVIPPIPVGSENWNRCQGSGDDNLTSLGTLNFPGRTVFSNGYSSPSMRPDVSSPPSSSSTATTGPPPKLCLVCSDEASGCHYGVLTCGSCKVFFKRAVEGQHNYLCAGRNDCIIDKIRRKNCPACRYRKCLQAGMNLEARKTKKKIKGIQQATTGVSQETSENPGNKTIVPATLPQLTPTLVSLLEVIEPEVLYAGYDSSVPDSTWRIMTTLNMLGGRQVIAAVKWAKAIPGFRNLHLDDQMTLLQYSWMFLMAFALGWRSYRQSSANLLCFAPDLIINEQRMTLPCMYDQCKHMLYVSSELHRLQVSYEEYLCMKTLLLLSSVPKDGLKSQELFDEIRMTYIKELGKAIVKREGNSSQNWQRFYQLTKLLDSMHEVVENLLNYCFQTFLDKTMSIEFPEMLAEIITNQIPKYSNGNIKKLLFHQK
# Assay: Cotransfection assay, GR antagonist
# Assay type: cell-based
# Conditions: read-out: GR Potency Antag
row,pIC50,SMILES
1,< 5.00,"CC1(C)OC(=O)Nc2ccc3c(c21)COc1c(F)cccc1-3 [Compound 14, 7-Fluoro-4,4-dimethyl-5H-chromeno[3,4-f]-1,3-benzo[d]oxazin-2-one]"
2,< 5.00,"CC1(C)OC(=O)Nc2ccc3c(c21)COc1c(F)cc(Br)cc1-3 [Compound 20, 9-Bromo-7-fluoro-4,4-dimethyl-5H-chromeno[3,4-f]-1,3-benzo[d]oxazin-2-one]"
3,< 5.00,"CC1(C)OC(=O)Nc2ccc3c(c21)COc1c(F)cc(C=O)cc1-3 [Compound 24, 7-fluoro-9-formyl-4,4-dimethyl-5H-chromeno[3,4-f]-1,3-benzo[d]oxazin-2-one]"
4,< 5.00,"CC1(C)OC(=O)Nc2ccc3c(c21)COc1c(F)cc(C=NO)cc1-3 [Compound 25, 7-fluoro-9-hydroxyiminomethyl-4,4-dimethyl-5H-chromeno[3,4-f]-1,3-benzo[d]oxazin-2-one]"
5,< 5.00,"CC1(C)OC(=O)Nc2ccc3c(c21)COc1c(F)cc(C#N)cc1-3 [Compound 26, 9-cyano-7-fluoro-4,4-dimethyl-5H-chromeno[3,4-f]-1,3-benzo[d]oxazin-2-one]"

# — patent US6358947B1 (American Home Products Corporation, priority 1999, dated 2002)
